Assay results taken from patent US4434170A, “Nor-tropane derivatives, and their application in therapeutics” (Delalande S.A., priority 1980, dated 1984).

Columns and labels:
[1] = tested on: apomorphine induced stereotypies; assay: Antagonism to the apomorphine induced stereotypies (rat); type: in vivo; conditions: po
Source text: (§1) I. C. Niemegeers and A. H. M. Jageneau in Arzneim-Forsch. (1960), 10, 1003.

[2] = tested on: apomorphinic straightenings; assay: Antagonism to apomorphinic straightenings (mice); type: in vivo; conditions: Mus musculus, ip, read-out: Antagonism to apomorphinic straightenings (mice) ED 50
Source text: as §1

Stair case test (rat) = type: in vivo; conditions: po, sedative effect
Acute toxicity (mice) = conditions: mouse, in vivo, ip, read-out: Toxicity (mice) LD 50
Method: The acute toxicity of the compounds of the invention was also tested intraperitoneally on mice.

gastric evacuation = assay: Gastric evacuation test (rat); type: in vivo
Method: The compounds of formula (I) were administered orally simultaneously with 20 steel balls to wakeful rats starved for 20 hours.

[3] = tested on: vomiting induced by apomorphine; assay: Antiemetic activity (dogs), vomiting induced by apomorphine; type: in vivo; conditions: one hour before apomorphine 0.1 mg/kg subcutaneous

Row | Compound | ED50 [2] | LD50 (Acute toxicity (mice)) | further results
1 | COc1c(N)cc(Br)cc1C(=O)N[C@@H]1C[C@H]2CC[C@@H](C1)N2Cc1ccccc1 [compound 106] | 0.053 mg/kg | 160 mg/kg | ED50 [1]: 1.6 mg/kg; ED50 (Stair case test (rat)): 8 mg/kg
2 | COc1cccc(C(=O)N[C@@H]2C[C@H]3CC[C@@H](C2)N3Cc2ccc(Cl)cc2)c1OC [compound 112] | 0.029 mg/kg | 220 mg/kg | 
3 | COc1cccc(C(=O)N[C@@H]2C[C@H]3CC[C@@H](C2)N3Cc2cccc(F)c2)c1OC [compound 113] | 0.016 mg/kg | 140 mg/kg | 
4 | CCOc1cccc(C(=O)N[C@@H]2C[C@H]3CC[C@@H](C2)N3Cc2ccccc2)c1OCC [compound 115] | 0.038 mg/kg | 53 mg/kg | ED50 [1]: 0.22 mg/kg; ED50 (Stair case test (rat)): 1.3 mg/kg
5 | COc1cccc(C(=O)N[C@@H]2C[C@H]3CC[C@@H](C2)N3Cc2cccc(C)c2)c1OC [compound 118] | 0.016 mg/kg | 90 mg/kg | 
6 | COc1cccc(C(=O)N[C@@H]2C[C@H]3CC[C@@H](C2)N3Cc2ccc(C)cc2)c1OC [compound 120] | 0.032 mg/kg | 100 mg/kg | 
7 | COc1cc(N)c(Br)cc1C(=O)N[C@@H]1C[C@H]2CC[C@@H](C1)N2Cc1ccccc1Cl [compound 121] | 0.024 mg/kg | 250 mg/kg | 
8 | CCOc1cc(N)c(Br)cc1C(=O)N[C@@H]1C[C@H]2CC[C@@H](C1)N2Cc1ccc(Cl)cc1 [compound 123] | 0.041 mg/kg | > 400 mg/kg | ED50 [1]: 0.2 mg/kg; ED50 (Stair case test (rat)): 1.7 mg/kg
9 | CCOc1cc(N)c(Br)cc1C(=O)N[C@@H]1C[C@H]2CC[C@@H](C1)N2Cc1cccc(Cl)c1 [compound 126] | 0.054 mg/kg | > 400 mg/kg | 
10 | COc1cc(N)c(Cl)cc1C(=O)N[C@@H]1C[C@H]2CC[C@@H](C1)N2Cc1cccc(F)c1 [compound 127] | 0.007 mg/kg | 200 mg/kg | 
11 | COc1cccc(C(=O)N[C@@H]2C[C@H]3CC[C@@H](C2)N3Cc2ccc(Br)cc2)c1OC [compound 129] | 0.008 mg/kg | 180 mg/kg | 
12 | COc1cc(N)c(Br)cc1C(=O)N[C@@H]1C[C@H]2CC[C@@H](C1)N2Cc1ccccc1F [compound 131] | 0.013 mg/kg | 250 mg/kg | 
13 | COc1cc(N)c(Br)cc1C(=O)N[C@@H]1C[C@H]2CC[C@@H](C1)N2Cc1ccoc1 [compound 132] | 0.12 mg/kg | 200 mg/kg | Gastric evacuation: % animals whose stomach contains no ball after 90 minutes (gastric evacuation; 0.6 mg/kg/po): 25%; Gastric evacuation: % animals whose stomach contains no ball after 90 minutes (gastric evacuation; 1.3 mg/kg/po): 50%; Gastric evacuation: % animals whose stomach contains no ball after 90 minutes (gastric evacuation; 5 mg/kg/po): 75%; Gastric evacuation: % animals whose stomach contains no ball after 90 minutes (gastric evacuation; 10 mg/kg/po): 100%; Antiemetic activity: % inhibition of vomiting induced by apomorphine ([3]; 0.01 mg/kg/po): 100%
14 | COc1cc(OC)c(OC)c(C(=O)N[C@@H]2C[C@H]3CC[C@@H](C2)N3Cc2ccccc2)c1 [compound 135] | 0.01 mg/kg | 70 mg/kg | 
15 | CCOc1c(OC)cccc1C(=O)N[C@@H]1C[C@H]2CC[C@@H](C1)N2Cc1ccccc1 [compound 139] | 0.01 mg/kg | 76 mg/kg | ED50 [1]: 0.06 mg/kg; ED50 (Stair case test (rat)): 0.3 mg/kg
16 | CCOc1cccc(C(=O)N[C@@H]2C[C@H]3CC[C@@H](C2)N3Cc2ccccc2)c1OC [compound 140] | 0.019 mg/kg | 70 mg/kg | 
17 | CCOc1c(OC)cc(OC)cc1C(=O)N[C@@H]1C[C@H]2CC[C@@H](C1)N2Cc1ccccc1 [compound 141] | 0.035 mg/kg | 115 mg/kg | 
18 | COc1cc([N+](=O)[O-])cc(C(=O)N[C@@H]2C[C@H]3CC[C@@H](C2)N3Cc2ccccc2)c1OC [compound 142] | 0.012 mg/kg | 87.5 mg/kg | 
19 | CCOc1c(OC)cccc1C(=O)N[C@@H]1C[C@H]2CCC[C@@H](C1)N2Cc1ccccc1 [compound 143] | 0.025 mg/kg | 110 mg/kg | ED50 [1]: 0.26 mg/kg; ED50 (Stair case test (rat)): 1.6 mg/kg
20 | CCOc1c(OC)cccc1C(=O)N[C@@H]1C[C@H]2CC[C@@H](C1)N2Cc1ccc(Cl)c(Cl)c1 [compound 145] | 0.3 mg/kg | > 400 mg/kg | 
21 | COc1cc(Br)cc(C(=O)N[C@@H]2C[C@H]3CC[C@@H](C2)N3Cc2ccccc2)c1OC [compound 147] | 0.042 mg/kg | 165 mg/kg | Gastric evacuation: % animals whose stomach contains no ball after 90 minutes (gastric evacuation; 0.3 mg/kg/po): 25%; Gastric evacuation: % animals whose stomach contains no ball after 90 minutes (gastric evacuation; 0.6 mg/kg/po): 63%; Gastric evacuation: % animals whose stomach contains no ball after 90 minutes (gastric evacuation; 10 mg/kg/po): 90%; Antiemetic activity: % inhibition of vomiting induced by apomorphine ([3]; 0.1 mg/kg/po): 100%
22 | COc1cccc(C(=O)N[C@@H]2C[C@H]3CCC[C@@H](C2)N3Cc2ccccc2)c1OC [compound 148] | 0.008 mg/kg | 100 mg/kg | 
23 | COc1cccc(C(=O)N[C@@H]2C[C@H]3CC[C@@H](C2)N3Cc2ccc(F)cc2)c1OC [compound 155] | 0.005 mg/kg | 140 mg/kg | 
24 | COc1cc(SC)cc(C(=O)N[C@@H]2C[C@H]3CC[C@@H](C2)N3Cc2ccccc2)c1OC [compound 168] | 0.28 mg/kg | 120 mg/kg | 
25 | COc1cc(N)c(Cl)cc1C(=O)N[C@@H]1C[C@H]2CC[C@@H](C1)N2Cc1cccc(C)c1 [compound 169] | 0.034 mg/kg | 70 mg/kg | ED50 [1]: 0.46 mg/kg; ED50 (Stair case test (rat)): 3.5 mg/kg
26 | COc1cc(C(C)=O)cc(C(=O)N[C@@H]2C[C@H]3CC[C@@H](C2)N3Cc2ccccc2)c1OC [compound 171] | 0.029 mg/kg | 115 mg/kg | 
27 | COc1cccc(C(=O)N[C@@H]2C[C@H]3CC[C@@H](C2)N3Cc2cccc(Cl)c2)c1OC [compound 173] | 0.013 mg/kg | 160 mg/kg | 
28 | CCSc1cc(OC)c(OC)c(C(=O)N[C@@H]2C[C@H]3CC[C@@H](C2)N3Cc2ccccc2)c1 [compound 174] | 0.034 mg/kg | 95 mg/kg | 
29 | COc1cccc(C(=O)N[C@@H]2C[C@H]3CC[C@@H](C2)N3Cc2ccc(C#N)cc2)c1OC [compound 180] | 0.01 mg/kg | 275 mg/kg | 
